The values that follow come from paper PMC6114082, “Synthesis of aminophenylhydroxamate and aminobenzylhydroxamate derivatives and in vitro screening for antiparasitic and histone deacetylase inhibitory activity” (International Journal for Parasitology: Drugs and Drug …, 2018).

A word on the IC50: it is the concentration at which inhibition is half-maximal.

Read-outs that look alike come from different tables or passages of the source. Where only a bound is given, the exact number is not on record here.

Data set [1] deals with L. tropica MHOM/BR/73/5-ASKM. The data set can be described thus: Antileishmanial activity, L. tropica promastigotes. In kind it is cell-based, Leishmania tropica. As for the experimental part: (§1) The antitrypanosomatid activity of the compounds was ascertained as follows. Leishmania parasites were cultured at 26 °C in SDM-79 medium supplemented with 10% fetal calf serum (FCS), and the antileishmanial activity was determined according to a previously published protocol for LUC-expressing and wild-type Leishmania ([Sereno et al., 2001], [Abbassi et al., 2008]). Trypanosoma brucei gambiense were grown at 26 °C in Cunningham's medium supplemented with 10% FCS, 2 mM GlutaMAX-1 (Gibco, USA), 100 U/ml penicillin, 100 μg/ml streptomycin and […] bovine hemin. The epimastigote form of Trypanosoma cruzi (strain Y cl7 scl2, lineage Tc2) (kindly provided by Philippe Truc and Christian Barnabé, UMR 177 IRD-CIRAD InterTryp, Montpellier, France) were grown at 26 °C in liver infusion tryptose (LIT) medium, supplemented with 10% FCS, 2 mM GlutaMAX™-I, 100 U/ml penicillin, 100 μg/ml streptomycin and bovine hemin (20 mg/l) (Gibco). The antitrypanosomatids activity was determined using a protocol that was initialy set up for wild-type Leishmania ([Abbassi et al., 2008]). To assess the drug activity on Toxoplasma gondii, confluent human foreskin fibroblast (HFF) monolayers were infected with YFP-type I Rh kindly provided by B. Striepen, see ([Striepen et al., 1998]) or Tomato-type II Pru kindly provided by N. Blanchard (Toulouse), expressing parasites at 5 × 10^4 per well, which were then centrifuged for 30 s at 1300 rpm and incubated for 30 min in a water bath at 37 °C to allow invasion. The wells were then washed three times with PBS to eliminate extracellular parasites, and the drugs were added at various concentrations ranging from 1 to 50 μM. After incubation for 24 h at 37 °C in a humidified atmosphere containing 5% CO2, the cells were fixed in 2.5% methanol-free formaldehyde (Tebu-bio)/PBS for 30 min at room temperature. Nuclei were stained with Hoechst 33258 (2 μg/ml, Molecular Probes) for 20 min and then washed three times with water for 10 min each time. The number of infected cells, i.e., cells harboring a parasitophorous vacuole, and the number of parasites per vacuole were determined using an Olympus ScanR microscope ( × 20 objective) and ScanR software. The parasitic index in % compared to the control was calculated as follows: (PI=((number of parasite/100 cells in treated wells) x (% of infected macrophage in treated well)/(number of parasite/100 cells in untreated wells) x (% of infected macrophage in untreated wells))*100).

For data set [2], the system named is T. gondi RH-YFP. The data set can be described thus: Anti-Toxoplasma activity in infected HFF monolayers, type I RH-YFP (parasitic index). In kind it is cell-based, Toxoplasma gondii. The settings on record: for IS^a selectivity index for T. gondi: IC50 HFF / IC50 T. gondi RH-YFP; for IC50: 24 h, type I strain, in HFF, read-out: T. gondi RH-YFP IC50.
Data set [3] concerns L. braziliensis MHOM/BR/75/M209. The data set can be described thus: Antileishmanial activity, L. braziliensis promastigotes (luciferase expressing strain). It is filed as cell-based, Leishmania braziliensis. The protocol: as §1
Data set [4] has as its system HeLa nuclear extract (HDAC 1, 2, 6, and 8 predominant). The data set can be described thus: Fluorometric HDAC assay, HeLa nuclear extract. The settings on record: HeLa nuclear extract; read-out: HDACi HeLa IC50. It is filed as biochemical. The protocol:
The HDACi effect against HeLa nuclear extracts and recombinant proteins were measured using a fluorometric HDAC assay kit (Active Motif, Belgium) according to the manufacturer's instructions. […] A negative control containing trichostatin A at a final concentration of 2 μM was analyzed for each independent experiment.

For data set [5], the system named is T. brucei MHOM/CI/81/DAL967. The data set is described as follows: Antitrypanosomal activity, T. brucei. In kind it is cell-based, Trypanosoma brucei gambiense. The protocol:
as §1

The test system of data set [6] is L. infantum MHOM/MA/67/ITMAP-264. The data set is described as follows: Antileishmanial activity, L. infantum promastigotes (luciferase expressing strain). In kind it is cell-based, Leishmania infantum. The settings on record: for IS^b selectivity index for L. infantum: IC50 THP-1 / IC50 Leishmania infantum (footnote); for IC50: promastigotes, luciferase expressing strain. As for the experimental part: as §1

Data set [7] in a line: Cytotoxicity, MTT assay, THP-1. The conditions noted are these: human, THP-1 cells (monocytic cell line); MTT assay. In kind it is cell-based, human. The protocol: (§2) The human monocytic cell line THP-1 was cultivated in RPMI medium supplemented with 10% FCS, 2 mM GlutaMAX, 100 U/ml penicillin, and 100 μg/ml streptomycin. HFF cells were cultivated in Dulbecco's modified Eagle's medium (DMEM) with Earle's salts containing 10% FCS, 10 mM HEPES, 1 mM sodium pyruvate, 2 mM GlutaMAX, 100 U/ml penicillin, and 100 μg/ml streptomycin. The THP-1 and HFF cells were maintained in a 5% CO2 incubator at 37 °C. Cytotoxicity was evaluated via the MTT assay, and the IC50 values were calculated using Prism software (Prism 4 for Mac OS X, version 5.0b, December, 2008).
A general note: Formazan colour is commonly taken as a measure of viable cells.

Data set [8] is described as follows: Cytotoxicity, MTT assay, HFF. In kind it is cell-based, human. The conditions noted are these: human, HFF cells. The protocol: as §2
Another data set has as its system THP-1 cells. The data set is described as follows: Cytotoxicity, MTT assay, THP-1. It is filed as cell-based, human. The settings on record: MTT assay. As for the experimental part: as §2
A further data set deals with HFF cells. The data set is described as follows: Cytotoxicity, MTT assay, HFF. It is filed as cell-based, human. The protocol:
as §2

A further data set deals with Leishmania. The data set can be described thus: Antileishmanial activity, Leishmania species summarised in text. In kind it is cell-based, Leishmania spp. The settings on record: abstract sentence also covers antitrypanosomal activity, read-out: antileishmanial activity IC50, summarised over species. The protocol: The antitrypanosomatid activity of the compounds was ascertained as follows. Leishmania parasites were cultured at 26 °C in SDM-79 medium supplemented with 10% fetal calf serum (FCS), and the antileishmanial activity was determined according to a previously published protocol for LUC-expressing and wild-type Leishmania ([Sereno et al., 2001], [Abbassi et al., 2008]). Trypanosoma brucei gambiense were grown at 26 °C in Cunningham's medium supplemented with 10% FCS, 2 mM GlutaMAX-1 (Gibco, USA), 100 U/ml penicillin, 100 μg/ml streptomycin and 20 mg/ml bovine hemin. […] The antitrypanosomatids activity was determined using a protocol that was initialy set up for wild-type Leishmania ([Abbassi et al., 2008]). […] The number of infected cells, i.e., cells harboring a parasitophorous vacuole, and the number of parasites per vacuole were determined using an Olympus ScanR microscope ( × 20 objective) and ScanR software. The parasitic index in % compared to the control was calculated as follows: (PI=((number of parasite/100 cells in treated wells) x (% of infected macrophage in treated well)/(number of parasite/100 cells in untreated wells) x (% of infected macrophage in untreated wells))*100).

Data set [9] relates to T. gondi RH-YFP. Set-up: method as in Butler et al., 2013. The settings on record: ref Butler et al., 2013; read-out: anti-Toxoplasma IC50, literature; cited from earlier work.

Regarding `COc1cccc(CC(=O)NCc2ccc(C(=O)NO)cc2)c1` [Compound 362, N-hydroxy-4-{[2-(3-methoxyphenyl)acetamido]methyl}benzamide], the IC50 in [1] (Leishmania tropica) was above 60 µM; in the data set on T. gondi RH-YFP [2] (Toxoplasma gondii) it was above 50 µM; in data set [3] (Leishmania braziliensis), above 60 µM; in data set [4], 0.518 ± 0.146 µM; in data set [5] (Trypanosoma brucei), above 60 µM; in data set [6] (Leishmania infantum) it was above 60 µM. For the same compound, the IC50 in data set [7] was 30.5 ± 3 µM; in data set [8], above 400 µM. The “IS^a selectivity index for T. gondi” value in the data set with T. gondi RH-YFP [2] is above 7.6. Besides, the “IS^b selectivity index for L. infantum” value in data set [6] was below 1.

For the compound `O=C(NO)c1ccc(CNS(=O)(=O)c2cccc(F)c2)cc1` [Compound 350, 4-(3-fluorobenzenesulfonamidomethyl)-N-hydroxybenzamide], the IC50 in data set [1] (Leishmania tropica) is above 60 µM; in the data set on T. gondi RH-YFP [2] (Toxoplasma gondii) it was below 50 µM; in data set [3] (Leishmania braziliensis), above 60 µM; in data set [5] (Trypanosoma brucei), above 60 µM; in data set [6] (Leishmania infantum), above 60 µM; in data set [7] it was above 400 µM. In data set [8], this compound had an IC50 of 300 ± 50 µM. The “IS^a selectivity index for T. gondi” value in the data set with T. gondi RH-YFP [2] is 7.5.

As for `Cc1nc(-c2ccc(C(=O)Nc3ccc(C(=O)NO)cc3)cc2)cs1` [Compound 361], the half-maximal inhibitory concentration (IC50) was above 60 µM in data set [1]; above 50 µM in the data set on T. gondi RH-YFP [2]; above 60 µM in [3]; above 1.8 µM in data set [4]; above 60 µM in [5]; above 60 µM in [6]. The IC50 was above 400 µM in the data set on THP-1 cells and 25 ± 4 µM in the data set on HFF cells.

For `O=C(NO)c1ccc(NC(=O)c2cccc(F)c2)cc1` [Compound 349, 4-(3-fluorobenzamido)-N-hydroxybenzamide], the IC50 in data set [1] (Leishmania tropica) was above 60 µM; with T. gondi RH-YFP [2] (Toxoplasma gondii), above 50 µM; in data set [3] (Leishmania braziliensis), above 60 µM; in [4], 0.633 ± 0.041 µM; in data set [5] (Trypanosoma brucei), above 60 µM; in data set [6] (Leishmania infantum) it was above 60 µM. Also, the half-inhibitory concentration (IC50) was 264 ± 8 µM in data set [7] and above 400 µM in data set [8].

As for `O=C(NO)c1ccc(NS(=O)(=O)c2cccc(F)c2)cc1` [Compound 351, 4-(3-fluorobenzenesulfonamido)-N-hydroxybenzamide], the IC50 in data set [1] (Leishmania tropica) is above 60 µM; in the data set with T. gondi RH-YFP [2] (Toxoplasma gondii), above 50 µM; in [3] (Leishmania braziliensis), above 60 µM; in data set [4], 0.881 ± 0.083 µM; in [5] (Trypanosoma brucei) it was above 60 µM; in data set [6] (Leishmania infantum) it was above 60 µM. In addition, the half-inhibitory concentration (IC50) in [7] amounted to 33.5 ± 15 µM; in data set [8] it was 116 ± 3 µM. For the same compound, in [6], the “IS^b selectivity index for L. infantum” value is reported as below 1.

With `O=C(NO)c1ccc(CNC(=O)c2cccc(F)c2)cc1` [Compound 345, 4-{[(3-fluorophenyl)formamido]methyl}-N-hydroxybenzamide], the half-maximal inhibitory concentration (IC50) in data set [1] (Leishmania tropica) is 35.3 ± 12.2 µM; in the data set on Leishmania, 15 to 50 µM; in data set [3] (Leishmania braziliensis) it was 23.5 ± 1.5 µM; in data set [4], 0.866 ± 0.4 µM; in data set [5] (Trypanosoma brucei), above 60 µM; in data set [6] (Leishmania infantum), 27.2 ± 2.5 µM. In [8], the 50% inhibitory concentration (IC50) was 58.3 ± 1.2 µM. Further, the “IS^a selectivity index for T. gondi” value with T. gondi RH-YFP [2] is 11.6. The “IS^b selectivity index for L. infantum” value in data set [6] worked out at 0.3.

Take `Cc1nc(-c2ccc(C(=O)NCc3ccc(C(=O)NO)cc3)cc2)cs1` [Compound 360]: the IC50 was 55 ± 15 µM in data set [1]; above 60 µM in [3]; 0.399 ± 0.137 µM in data set [4]; above 60 µM in [5]; above 60 µM in data set [6]; 2.2 ± 0.5 µM in the data set on THP-1 cells. This compound also came in with an IC50 in the data set on HFF cells of 22.6 ± 9.5 µM.

Take `CCc1nc(N)nc(N)c1-c1ccc(Cl)cc1` [pyrimethamine]: in the data set with T. gondi RH-YFP [9], the IC50 was 0.4 µM.
